Where “and” joins values, the source holds several entries; their conditions need not be identical. Equal values may be shown once.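 48-hour exposure; five concentrations; linearly interpolated endpoints. GI50 = concentration required for 50% inhibition of growth. The concentration for full growth arrest is given as TGI.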
The compounds below were run on SN12C renal (assay: DTP human tumour cell line panel, 48 h).

| SMILES | TGI | GI50 |
| --- | --- | --- |
| COc1cc2c(cc1OC)C(C(c1ccccc1)c1ccccc1)N(C)CC2 (stereo not drawn) | > 100 µM |  |
| CCOC(=O)N1CCC(N[C@@H]2c3cc4c(cc3C(c3cc(OC)c(O)c(OC)c3)C3C(=O)OC[C@@H]32)OCO4)CC1 (stereo partly drawn) | 2.93 µM and 1.34 µM | 1.21 µM and 0.366 µM |
| C[N+](C)([O-])CCOc1cc2c(c3ccccc13)-c1ccccc1C2=O | 62.3 µM |  |
| CCOC(=O)C1S/C(=N\C(=N)N[N+](=O)[O-])N=C1C (stereo not drawn) | > 100 µM |  |
| O=[N+]([O-])C(=C(Nc1cccc2cccnc12)Nc1cccc2cccnc12)C(Cl)=C(Cl)Cl | > 95.7 µM |  |
| CNc1cc2c(c3ccccc13)C(CCl)CN2C(=O)c1cc2cc(OC)c(OC)c(OC)c2[nH]1 (stereo not drawn) | 0.00628 µM and 0.0118 µM |  |
| CCCCCCCCCCCCCCCCNc1cccc2ccccc12 | > 100 µM |  |
| O=C1OCC/C1=N/O | > 100 µM |  |
| CC(O)CNC(=O)C(C)Oc1ccc(OCC2CCCCC2)cc1 (stereo not drawn) | > 100 µM |  |
| CSC1=N/C(=C\c2ccc(C)cc2)C(=O)N1CN1CCCCC1 | > 100 µM |  |
| Cc1ccc(C2=CC(=O)OC(C[P+](c3ccccc3)(c3ccccc3)c3ccccc3)(c3ccccc3)O2)cc1 (stereo not drawn) | 57.7 µM |  |
| O=c1oc2cc(O)ccc2c(O)c1C(c1ccccc1)c1c(O)c2ccc(O)cc2oc1=O | > 100 µM |  |
| O=C(NCP(=O)(Oc1ccccc1)Oc1ccccc1)OCc1ccccc1 | > 100 µM |  |
| Cc1c(O)nc(-n2[nH]c3c(c2=O)CCCC3)[nH]c1=O | > 100 µM |  |
| C=CCn1c(=O)c(C(=O)Nc2nc(C34CC5CC(CC(C5)C3)C4)cs2)c(O)c2ccccc21 | > 100 µM |  |
| CC(NC(=O)Cc1ccccc1)NC(=O)C(C)C(=O)Nc1ccccc1 (stereo not drawn) | > 100 µM |  |
| CCOC(=O)c1c(-c2ccc(O)c(OC)c2)c(C#N)c(=S)n(C2OC(CO)C(O)C(O)C2O)c1-c1ccccc1 (stereo not drawn) | > 100 µM |  |
| C=C1CC(C#N)(C#N)[C@H]2C3CCCC3C[C@@H]12 (stereo partly drawn) (tested in a mixture with another compound) | 30.5 µM |  |
| COC(C)(C)C1(O)CC[C@@H](C)CC1=O (stereo partly drawn) | > 100 µM |  |
| Nc1ccc(N=Nc2c(S(=O)(=O)O)cc3ccccc3c2S(=O)(=O)O)cc1 | > 100 µM |  |

Each compound was assayed on ACHN renal (assay: DTP human tumour cell line panel, 48 h).

| SMILES | TGI |
| --- | --- |
| CC1=CCC([C@@](C)(O)CCCC(C)(C)N=C=S)CC1 (stereo partly drawn) | 30.5 µM |
| CCN1CN(c2ccccc2)C2(CCN(CC3COc4ccccc4O3)CC2)C1=O (stereo not drawn) | 71.2 µM |
| C=C1C(=O)CC2C1CC(=O)/C(C)=C/CCC(C)(O)C2O (stereo not drawn) | 4.92 µM |
| N[C@@H](Cc1ccccc1)C(=O)N1CCC[C@@H]1P(=O)(Oc1ccccc1)Oc1ccccc1 | > 100 µM |
| Cc1ccc(/C=N\NC2c3cc(Cl)ccc3Nc3nc(=O)[nH]c(C)c32)cc1 (stereo not drawn) | > 100 µM |
| C[C@H](CCC(=O)O)[C@H]1CC[C@H]2[C@@H]3C(=O)C[C@@H]4C[C@H](O)CC[C@]4(C)[C@H]3C[C@H](O)[C@]12C | > 100 µM |
| CC(=O)NC1C(OCc2ccccc2)OC(CO)C(O)C1OCC(=O)N[C@@H](C)C(=O)N[C@H](CCC(=O)NCCCNc1c2ccccc2nc2cccc([N+](=O)[O-])c12)C(N)=O (stereo partly drawn) | 0.115 µM |
| COc1ccc(-c2nc(SCC(=O)NNC(=S)Nc3ccccc3)[nH]c2-c2ccc(OC)cc2)cc1 | 64.2 µM |
| O=C(O)c1ccccc1CC(Cc1ccc2c(c1)CCC2)C(=O)O (stereo not drawn) | > 100 µM |
| Cn1c(SCc2ccc(F)cc2)nnc1C12CC3CC(CC(C3)C1)C2 | > 100 µM |
| COC(=O)/C=C\C(C#N)(C#N)N=Cc1ccc(C)cc1 | 6.04 µM |
| CC(c1ccccc1)N1CCN(C(C)c2ccccc2)CC1 (stereo not drawn) | > 100 µM |
| CCCCCC#CCOC(=O)C(=[N+]=[N-])P(=O)(c1ccccc1)c1ccccc1 | > 10 µM |
| COc1ccc(C(=O)/C=C/c2ccc(OCCCOc3ccc(/C=C/C(=O)c4ccc(OC)cc4)cc3)cc2)cc1 | > 100 µM |
| CCOc1cc(/C=C2/C(C)=NN(c3cccc(Cl)c3)/C2=N/c2nc3ccccc3s2)ccc1O | 63.6 µM |
| O=C(O)COc1ccccc1C(=O)Nc1ccccc1 | > 100 µM |
| COc1cc(OC)cc(C(=O)CC(=O)c2cc(OC)cc(OC)c2)c1 | > 100 µM |
| COc1ccc(C2c3cn[nH]c3CC3CCCCC32)cc1 (stereo not drawn) | 33.1 µM |
| O=C(O)[C@H]1CCCN1CP(=O)(O)CN1CCC[C@@H]1C(=O)O | > 100 µM |
| Cc1nc(C)c(N2CCN([N+](=O)[O-])CC2)c(=O)[nH]1 | > 100 µM |

| SMILES | TGI |
| --- | --- |
| CCOC(=O)N1CCC(N[C@@H]2c3cc4c(cc3C(c3cc(OC)c(O)c(OC)c3)C3C(=O)OC[C@@H]32)OCO4)CC1 (stereo partly drawn) | 1.63 µM and 1.86 µM |
| CCOC(=O)C1S/C(=N\C(=N)N[N+](=O)[O-])N=C1C (stereo not drawn) | > 100 µM |
| O=[N+]([O-])C(=C(Nc1cccc2cccnc12)Nc1cccc2cccnc12)C(Cl)=C(Cl)Cl | > 51.1 µM |
| CNc1cc2c(c3ccccc13)C(CCl)CN2C(=O)c1cc2cc(OC)c(OC)c(OC)c2[nH]1 (stereo not drawn) | 0.00154 µM |
| CCCCCCCCCCCCCCCCNc1cccc2ccccc12 | > 100 µM |
| O=C1OCC/C1=N/O | > 100 µM |
| CC(O)CNC(=O)C(C)Oc1ccc(OCC2CCCCC2)cc1 (stereo not drawn) | > 100 µM |
| CSC1=N/C(=C\c2ccc(C)cc2)C(=O)N1CN1CCCCC1 | > 100 µM |
| Cc1ccc(C2=CC(=O)OC(C[P+](c3ccccc3)(c3ccccc3)c3ccccc3)(c3ccccc3)O2)cc1 (stereo not drawn) | 39.8 µM |
| Cc1ccc(S(=O)(=O)n2c3c(c4ccccc42)CCN2C[C@H]([C@H](C)Br)CC[C@@H]32)cc1 | > 100 µM |
| O=C(NCP(=O)(Oc1ccccc1)Oc1ccccc1)OCc1ccccc1 | > 100 µM |
| Cc1c(/C=N\NC(=S)NCCNC(=S)N/N=C\c2c(C)n(C)n(-c3ccccc3)c2=O)c(=O)n(-c2ccccc2)n1C | > 100 µM |
| O=P(O)(O)C(N=C(Nc1ccccc1)Nc1ccccc1)P(=O)(O)O | > 100 µM |
| Cc1c(O)nc(-n2[nH]c3c(c2=O)CCCC3)[nH]c1=O | > 100 µM |
| C=CCn1c(=O)c(C(=O)Nc2nc(C34CC5CC(CC(C5)C3)C4)cs2)c(O)c2ccccc21 | > 100 µM |
| CC(NC(=O)Cc1ccccc1)NC(=O)C(C)C(=O)Nc1ccccc1 (stereo not drawn) | > 100 µM |
| CCOC(=O)c1c(-c2ccc(O)c(OC)c2)c(C#N)c(=S)n(C2OC(CO)C(O)C(O)C2O)c1-c1ccccc1 (stereo not drawn) | > 100 µM |
| C=C1CC(C#N)(C#N)[C@H]2C3CCCC3C[C@@H]12 (stereo partly drawn) (tested in a mixture with another compound) | 61.1 µM |
| COC(C)(C)C1(O)CC[C@@H](C)CC1=O (stereo partly drawn) | > 100 µM |
| Nc1ccc(N=Nc2c(S(=O)(=O)O)cc3ccccc3c2S(=O)(=O)O)cc1 | > 100 µM |

Each compound was assayed on SF-295 CNS (assay: DTP human tumour cell line panel, 48 h).

| SMILES | TGI |
| --- | --- |
| CC1=CCC([C@@](C)(O)CCCC(C)(C)N=C=S)CC1 (stereo partly drawn) | 36.3 µM |
| CCN1CN(c2ccccc2)C2(CCN(CC3COc4ccccc4O3)CC2)C1=O (stereo not drawn) | > 100 µM |
| C=C1C(=O)CC2C1CC(=O)/C(C)=C/CCC(C)(O)C2O (stereo not drawn) | 47.8 µM |
| O=C1C=C/C(=N\N=C(c2ccccc2)c2ccccc2)O1 | > 10 µM |
| N[C@@H](Cc1ccccc1)C(=O)N1CCC[C@@H]1P(=O)(Oc1ccccc1)Oc1ccccc1 | > 100 µM |
| Cc1ccc(/C=N\NC2c3cc(Cl)ccc3Nc3nc(=O)[nH]c(C)c32)cc1 (stereo not drawn) | > 100 µM |
| CC(=O)NC1C(OCc2ccccc2)OC(CO)C(O)C1OCC(=O)N[C@@H](C)C(=O)N[C@H](CCC(=O)NCCCNc1c2ccccc2nc2cccc([N+](=O)[O-])c12)C(N)=O (stereo partly drawn) | 1.33 µM |
| COc1ccc(-c2nc(SCC(=O)NNC(=S)Nc3ccccc3)[nH]c2-c2ccc(OC)cc2)cc1 | 39.8 µM |
| O=C(O)c1ccccc1CC(Cc1ccc2c(c1)CCC2)C(=O)O (stereo not drawn) | > 100 µM |
| Cn1c(SCc2ccc(F)cc2)nnc1C12CC3CC(CC(C3)C1)C2 | > 100 µM |
| COC(=O)/C=C\C(C#N)(C#N)N=Cc1ccc(C)cc1 | 51 µM |
| CC(c1ccccc1)N1CCN(C(C)c2ccccc2)CC1 (stereo not drawn) | > 100 µM |
| CCCCCC#CCOC(=O)C(=[N+]=[N-])P(=O)(c1ccccc1)c1ccccc1 | > 10 µM |
| COc1ccc(C(=O)/C=C/c2ccc(OCCCOc3ccc(/C=C/C(=O)c4ccc(OC)cc4)cc3)cc2)cc1 | > 100 µM |
| CCOc1cc(/C=C2/C(C)=NN(c3cccc(Cl)c3)/C2=N/c2nc3ccccc3s2)ccc1O | 93.8 µM |
| O=C(O)COc1ccccc1C(=O)Nc1ccccc1 | > 100 µM |
| COc1cc(OC)cc(C(=O)CC(=O)c2cc(OC)cc(OC)c2)c1 | > 100 µM |
| O=C(O)[C@H]1CCCN1CP(=O)(O)CN1CCC[C@@H]1C(=O)O | > 100 µM |
| O=C1CC2(CCC(O)(c3ccc4ccccc4c3)C(C(=O)c3ccc4ccccc4c3)C2)C(=O)c2ccccc2N1 (stereo not drawn) | > 100 µM |

| SMILES | TGI |
| --- | --- |
| Cc1nc(C)c(N2CCN([N+](=O)[O-])CC2)c(=O)[nH]1 | > 100 µM |
| COc1cc2c(cc1OC)C(C(c1ccccc1)c1ccccc1)N(C)CC2 (stereo not drawn) | > 100 µM |
| CCOC(=O)N1CCC(N[C@@H]2c3cc4c(cc3C(c3cc(OC)c(O)c(OC)c3)C3C(=O)OC[C@@H]32)OCO4)CC1 (stereo partly drawn) | 2.53 µM and 2.42 µM |
| C[N+](C)([O-])CCOc1cc2c(c3ccccc13)-c1ccccc1C2=O | > 72.1 µM |
| CCOC(=O)C1S/C(=N\C(=N)N[N+](=O)[O-])N=C1C (stereo not drawn) | > 100 µM |
| O=[N+]([O-])C(=C(Nc1cccc2cccnc12)Nc1cccc2cccnc12)C(Cl)=C(Cl)Cl | > 100 µM |
| CCCCCCCCCCCCCCCCNc1cccc2ccccc12 | > 100 µM |
| O=C1OCC/C1=N/O | > 100 µM |
| CC(O)CNC(=O)C(C)Oc1ccc(OCC2CCCCC2)cc1 (stereo not drawn) | > 100 µM |
| CSC1=N/C(=C\c2ccc(C)cc2)C(=O)N1CN1CCCCC1 | > 100 µM |
| Cc1ccc(C2=CC(=O)OC(C[P+](c3ccccc3)(c3ccccc3)c3ccccc3)(c3ccccc3)O2)cc1 (stereo not drawn) | 45.5 µM |
| Cc1ccc(S(=O)(=O)n2c3c(c4ccccc42)CCN2C[C@H]([C@H](C)Br)CC[C@@H]32)cc1 | > 100 µM |
| O=c1oc2cc(O)ccc2c(O)c1C(c1ccccc1)c1c(O)c2ccc(O)cc2oc1=O | > 100 µM |
| O=C(NCP(=O)(Oc1ccccc1)Oc1ccccc1)OCc1ccccc1 | > 100 µM |
| Cc1c(/C=N\NC(=S)NCCNC(=S)N/N=C\c2c(C)n(C)n(-c3ccccc3)c2=O)c(=O)n(-c2ccccc2)n1C | > 100 µM |
| O=P(O)(O)C(N=C(Nc1ccccc1)Nc1ccccc1)P(=O)(O)O | > 100 µM |
| Cc1c(O)nc(-n2[nH]c3c(c2=O)CCCC3)[nH]c1=O | > 100 µM |
| C=CCn1c(=O)c(C(=O)Nc2nc(C34CC5CC(CC(C5)C3)C4)cs2)c(O)c2ccccc21 | 40.7 µM |

— PubChem BioAssay (NCI)
